Results published in patent US7390875B2, “Method for binding, in solution, a peptide and a lipophilic vector and uses thereof” (Institut Pasteur de Lille, priority 2000, dated 2008).
Starred links: 1 amine or outer side, 2 acyl side, 3 side chain; linkers in the order of their positions; H or OH if unused. Hydrazinoacetyl = O=C(CNN[*:1])[*:2]

Test system: class II molecules of the MHC at the surface of COLO 205 cells
Assay: Quantification of the expression of class II MHC molecules at the surface of COLO 205 cells after incubation with lipopeptides (flow cytometry)
Assay type: cell-based, human
Conditions: Table IIIb; for Ratio (mean fluorescence treated vs non-treated cells): L243 antibody / ALEXA 488
Protocol: 2) Protocol for Quantification of the Expression of Molecules of Class II of the Major Histocompatibility Complex (MHC) at the Surface of the Cells.
The COLO 205 cells (human cell line obtained from a carcinoma of the colon) come from the ATCC (American Type Culture Collection) cell bank. They are cultivated in an RPMI 1640 medium (Gibco BRL, Courbevoie, France) with 10% of fetal calf serum (FCS) and 5 mM of sodium pyruvate, and incubated at 37° C. in the presence of 5% of CO2. […]
The surface expression of the class II molecules of the MHC is analysed using flow cytometry with a Coulter EPICS II cytometer, at the rate of 10,000 events per sample. The fluorescence intensity observed is directly proportional to the quantity of class II molecules of the MHC present on the surface of the cells. The mean fluorescence value observed for the non-treated cells and for the treated cells (“Mean” column in Table III) makes it possible to calculate a ratio between the mean fluorescence value of the non-treated cells and the mean fluorescence value for the treated cells (“Ratio” column in Table III). The control consists in incubating the cells in the absence of lipopeptides.

## L-MU-IFNγc: presumably peptide Mu-IFNγ c (SEQ ID NO: 12) coupled with palmitoyl vector (IIIa); synthesis not described (H-K(Hydrazinoacetyl)AKFEVNNPQVQRQAFNELIRVVHQLLPESSLRKRKRSR-NH2; also: palmitoyl vector (IIIa) coupled by hydrazone bond)
5 μM lipopeptide
  Ratio (mean fluorescence treated vs non-treated cells): 2.14
5 μM lipopeptide, L243 antibody revealed by second antibody coupled to ALEXA 488, control mean 0.607
  Mean (mean fluorescence value): 1.3
10 μM lipopeptide
  Ratio (mean fluorescence treated vs non-treated cells): 2.83
10 μM lipopeptide, L243 antibody / ALEXA 488, control mean 0.607
  Mean (mean fluorescence value): 1.72
35 μM lipopeptide
  Ratio (mean fluorescence treated vs non-treated cells): 24.8
35 μM lipopeptide, L243 antibody / ALEXA 488, control mean 0.607
  Mean (mean fluorescence value): 15.1
